Literature values, collected in PMC12308805, “Ultrahigh-Throughput Virtual Screening Strategies against PPI Targets: A Case Study of STAT Inhibitors” (Journal of Chemical Information and Modeling, 2025).

tested on: STAT3; conditions: cited from earlier work

SMILES | Type (known STAT3 active)
CC(C)C[C@H](NC(=O)/C=C/c1ccc(OP(=O)(O)O)cc1)C(=O)N1CCC[C@H]1C(=O)N[C@H](C)COC(N)=O [CHEMBL584376] | Active

same assay, conditions: sheet 6QHD_actives_decoys, retrospective screening set for STAT3 SH2 domain (PDB 6QHD); decoys are presumed inactives, not tested; ref DUD-E; cited from earlier work

SMILES | Type
Cc1cc(C)cc(NC(=O)COc2ccc(S(=O)(=O)Nc3ccc(C(=O)O)cc3)cc2[N+](=O)[O-])c1 [Decoy932] | Inactive (Decoy)
COc1cc(/C=N/N=C2\NC(=O)[C@H](CC(=O)O)S2)cc(Br)c1OS(=O)(=O)c1ccc(NC(C)=O)cc1 [Decoy786] | Inactive (Decoy)
COc1ccc([C@H](O[C@@H]2O[C@H](CO)[C@@H](O)[C@H](O)[C@H]2O)[C@@H](CO)Oc2ccc(/C=C/CO)cc2OC)cc1O [Decoy765] | Inactive (Decoy)
Cc1c(C#N)c(NC(=O)CSc2nnc(COc3ccccc3F)n2N)n(C[C@@H]2CCCO2)c1C [Decoy954] | Inactive (Decoy)
O=C(O)CN(CC(=O)O)Cc1cc2c(cc1O)Oc1cc(O)c(CN(CC(=O)O)CC(=O)O)cc1C21OC(=O)c2ccccc21 [Decoy739] | Inactive (Decoy)
CC[C@H](C)[C@H](O)C(=O)O[C@H](C(=O)O[C@H](C(=O)OC[C@@H](O)[C@@H](O)[C@@H](O)[C@@H](O)CO)[C@@H](C)CC)[C@@H](C)CC [Decoy860] | Inactive (Decoy)
CCOC(=O)c1c(NC(=O)/C(O)=N/N=C/c2cn(-c3ccccc3)nc2-c2ccc(OC)cc2)sc2c1CCCC2 [Decoy838] | Inactive (Decoy)
CCN(CC)S(=O)(=O)c1ccc(NC(=O)CCCCCCCC(=O)Nc2ccc(S(=O)(=O)N(CC)CC)cc2)cc1 [Decoy744] | Inactive (Decoy)
CCCOc1cccc(C(=O)NC(=S)Nc2ccc(S(=O)(=O)Nc3cc(OC)ncn3)cc2)c1 [Decoy947] | Inactive (Decoy)
CCCCSc1nnc(/N=C(\O)CSc2n[nH]c(N/N=C/c3c(C)nn(C(C)C)c3C)n2)s1 [Decoy797] | Inactive (Decoy)
CCSc1nnc(NC(=O)CSc2n[nH]c(N/N=C/c3ccc(F)cc3)n2)s1 [Decoy803] | Inactive (Decoy)
COc1ccc([N+](=O)[O-])cc1N(C[C@H](O)CN(Cc1ccccc1)Cc1ccccc1)S(=O)(=O)c1ccccc1 [Decoy741] | Inactive (Decoy)
C[C@H](O)C[C@H](O)[C@@H](SC[C@@H](O)C(=O)O)[C@@H](O)/C=C/Cc1cc2c(Cl)c(O)cc(O)c2c(=O)o1 [Decoy782] | Inactive (Decoy)

same assay, conditions: sheet 6QHD_actives_decoys; known STAT3 actives of the retrospective screening set; ref ChEMBL / literature; cited from earlier work

SMILES | Type (known STAT3 active)
C1=Cc2nc1cc1ccc([nH]1)c(-c1ccccc1)c1nc(cc3ccc([nH]3)c2-c2ccccc2)C=C1 [CHEMBL207155] | Active
CC(C)C[C@H](NC(=O)/C=C/c1ccc(OP(=O)(O)O)cc1)C(=O)N1CCC[C@H]1C(=O)NCCOC(N)=O [CHEMBL576590] | Active
NC(=O)CC[C@H](NC(=O)[C@@H]1Cc2cccc3c2N1C(=O)[C@@H](NC(=O)/C=C/c1ccc(OP(=O)(O)O)cc1)CC3)C(=O)NCc1ccccc1 [CHEMBL449547] | Active
NC(=O)CC[C@H](NC(=O)[C@@H]1Cc2cccc3c2N1C(=O)[C@@H](NC(=O)/C=C/c1ccc(OP(=O)(O)O)cc1)CC3)C(=O)O [CHEMBL510008] | Active
CC(C)C[C@H](NC(=O)/C=C/c1ccc(OP(=O)(O)O)cc1)C(=O)N1CCC[C@H]1C(=O)N[C@@H](CCC(N)=O)Cc1ccc(O)cc1 [CHEMBL573903] | Active

same assay, conditions: sheet 6QHD_actives_decoys; retrospective screening set for STAT3 SH2 domain (PDB 6QHD); […]; ref DUD-E; cited from earlier work

SMILES | Type
COc1cc(/C=N\NC(=O)N/N=C/c2cc(OC)c(O)c([N+](=O)[O-])c2)cc([N+](=O)[O-])c1O [Decoy599] | Inactive (Decoy)
Cc1ccc(N2C(=O)NC(=O)/C(=C\c3cc(C)n(-c4cc(C(=O)O)cc(C(=O)O)c4)c3C)C2=O)cc1 [Decoy670] | Inactive (Decoy)
CCOC(=O)[C@@](NC(=O)Nc1ccc(S(=O)(=O)Nc2nnc(SCC)s2)cc1)(c1ccc(F)cc1)C(F)(F)F [Decoy418] | Inactive (Decoy)
COc1cc(S(=O)(=O)N2CCCCC2)ccc1N/C=C1/C(=O)NC(=O)N(c2ccccc2)C1=O [Decoy344] | Inactive (Decoy)
C[C@@H](O)CC(=O)SCCNC(=O)CCNC(=O)[C@@H](O)C(C)(C)CO[P@](=O)(O)O[P@](=O)(O)OC[C@H]1O[C@@H](n2cnc3c(N)ncnc32)[C@@H](O)[C@H]1OP(=O)(O)O [Decoy404] | Inactive (Decoy)
NCCNC(=O)Cc1ccc(NC(=O)Cc2ccc(Nc3ncnc4c3ncn4[C@@H]3O[C@H](CO)[C@@H](O)[C@H]3O)cc2)cc1 [Decoy655] | Inactive (Decoy)
O=[N+]([O-])c1ccc(S(=O)(=O)Nc2cccc(NS(=O)(=O)c3ccc([N+](=O)[O-])cc3)c2)cc1 [Decoy459] | Inactive (Decoy)
CCOc1ccc(NS(=O)(=O)c2ccc3c(c2)CC(=O)N3)cc1S(=O)(=O)N1CCCC1 [Decoy537] | Inactive (Decoy)

same assay, conditions: sheet 6QHD_actives_decoys; retrospective screening set for STAT3 SH2 domain (PDB 6QHD); decoys generated with DUD-E and presumed inactive, not tested; ref DUD-E; cited from earlier work

SMILES | Type
CCOC(=O)Cc1csc(NC(=O)CSc2nnc(Cc3csc(N)n3)n2C)n1 [Decoy522] | Inactive (Decoy)
CCN(CC)c1ccc(/C=N/NC(=O)CN(c2cc(Cl)ccc2OC)S(=O)(=O)c2ccc(C)c([N+](=O)[O-])c2)cc1 [Decoy710] | Inactive (Decoy)
CN(C)S(=O)(=O)c1cccc(C(=O)NNC(=O)c2cn(-c3ccccc3)nc2-c2cccnc2)c1 [Decoy350] | Inactive (Decoy)
COC(=O)[C@@H]1O[C@@H](O[C@@H]2CC[C@@]3(C)[C@@H](CC[C@@H]4[C@H]5CC[C@@H](/C(COC(C)=O)=N/NC(N)=O)[C@@]5(C)CC(=O)[C@H]43)C2)[C@H](OC(C)=O)[C@@H](OC(C)=O)[C@@H]1OC(C)=O [Decoy622] | Inactive (Decoy)
CCN(CC)C(=O)c1sc(NC(=O)CCSCCC(=O)Nc2sc(C(=O)N(CC)CC)c(C)c2C(=O)OC)c(C(=O)OC)c1C [Decoy632] | Inactive (Decoy)
COC(=O)c1sc(NC(=O)c2ccc(C(=O)Nc3sc(C(=O)OC)c(C)c3C(=O)OC)cc2)c(C(=O)OC)c1C [Decoy394] | Inactive (Decoy)
CC(=O)O[C@H]([C@H](OC(C)=O)[C@H](OC(C)=O)C(=O)NC1CCCCCC1)[C@H](OC(C)=O)C(=O)NC1CCCCCC1 [Decoy425] | Inactive (Decoy)
CCCSc1nnc(/N=C(\O)CSc2nnc(N/N=C/c3c(C)nn(C(C)C)c3C)n2N)s1 [Decoy476] | Inactive (Decoy)
CCOc1cc(N2CCOCC2)c(OCC)cc1NC(=O)c1oc2ccccc2c1CSc1ncn[nH]1 [Decoy600] | Inactive (Decoy)
CCN(CC)C1=NC(=O)[C@@H](CC(=O)Nc2cccc(C(=O)OCC(=O)c3ccc(C)cc3)c2)S1 [Decoy495] | Inactive (Decoy)
COC(=O)[C@@H]1O[C@H](OC/C(=N/NC(N)=O)[C@H]2CC[C@@H]3[C@@H]4CC[C@@H]5C[C@H](OC(C)=O)CC[C@@]5(C)[C@H]4C(=O)C[C@@]23C)[C@@H](OC(C)=O)[C@H](OC(C)=O)[C@H]1OC(C)=O [Decoy497] | Inactive (Decoy)
COc1ccc(OC)c(-n2c(CNC(=O)c3ccc(S(=O)(=O)N(C)C)cc3)nnc2SCC(=O)Nc2ccc(F)cc2)c1 [Decoy528] | Inactive (Decoy)
CCC/C=C/[C@@H](C(=O)NCS(=O)(=O)c1ccc(C)cc1)N(CCC)C(=O)c1cc([N+](=O)[O-])ccc1O [Decoy570] | Inactive (Decoy)
O=C(O)CN(CC(=O)O)[C@H](CCCCNC(=S)Nc1ccc(-c2c3ccc(=O)cc-3oc3cc(O)ccc23)c(C(=O)O)c1)C(=O)O [Decoy503] | Inactive (Decoy)
C=CCn1c(Cc2csc(N)n2)nnc1SCC(=O)Nc1ccc(S(=O)(=O)Nc2cc(C)on2)cc1 [Decoy336] | Inactive (Decoy)
Nn1c(N/N=C/c2c(O)ccc3ccccc23)nnc1SCCC(=O)Nc1ccc2c(c1)C(=O)NC2=O [Decoy439] | Inactive (Decoy)
COC(=O)[C@@H]1O[C@H](OCC(=O)[C@@]2(O)CC[C@@H]3[C@H]4CCC5=CC(=O)CC[C@@]5(C)[C@@H]4[C@@H](O)C[C@@]32C)[C@@H](OC(C)=O)[C@H](OC(C)=O)[C@H]1OC(C)=O [Decoy633] | Inactive (Decoy)
CC(=O)OC[C@@H]1O[C@H](O)[C@H](OC(C)=O)[C@H](OC(C)=O)[C@@H]1O[C@@H]1O[C@H](COC(C)=O)[C@@H](O)[C@H](OC(C)=O)[C@@H]1OC(C)=O [Decoy413] | Inactive (Decoy)
CC[C@@H]1Oc2ccc(S(=O)(=O)N3CCN(C(=O)CNC(=O)c4cccs4)CC3)cc2NC1=O [Decoy604] | Inactive (Decoy)
C=C[C@@](C)(CC/C=C(\C)CC/C=C(\C)C[C@H](O)/C=C(\C)C(=O)O)O[C@@H]1O[C@H](CO)[C@@H](O)[C@H](O)[C@H]1O[C@@H]1O[C@H](CO)[C@@H](O)[C@H](O)[C@H]1O [Decoy688] | Inactive (Decoy)
CCCC(=O)C1=C(N2CCN(C3=C(C(=O)CCC)C(O)=C(C(=O)OC)C(C)(C)C3)CC2)CC(C)(C)[C@H](C(=O)OC)C1=O [Decoy436] | Inactive (Decoy)
CC1(C)CC[C@]2(C(=O)O[C@@H]3O[C@H](CO)[C@@H](O)[C@H](O)[C@H]3O)[C@H](O)C[C@]3(C)C(=CC[C@@H]4[C@@]5(C)CC[C@H](O[C@@H]6OC[C@H](O)[C@H](O)[C@H]6O)[C@@](C)(CO)[C@@H]5CC[C@]43C)[C@@H]2C1 [Decoy535] | Inactive (Decoy)
NC(=O)CN(CC(N)=O)c1ccc(F)cc1OCCOc1cc(F)ccc1N(CC(N)=O)CC(N)=O [Decoy400] | Inactive (Decoy)
COc1ccc(C(=O)O[C@H]2[C@@H]3C=CO[C@@H](O[C@@H]4O[C@H](COC(C)=O)[C@@H](OC(C)=O)[C@H](OC(C)=O)[C@H]4OC(C)=O)[C@@H]3[C@](O)(COC(C)=O)[C@@H]2O)cc1 [Decoy372] | Inactive (Decoy)
COc1cc([C@H]2C(C(=O)c3nc4c(C)cccn4c3C)=C(O)C(=O)N2CCCN2CCOCC2)ccc1O [Decoy674] | Inactive (Decoy)
C/C=C1/[C@H](O[C@@H]2O[C@H](CO)[C@@H](O)[C@H](O)[C@H]2O)OC=C(C(=O)OC)[C@H]1CC(=O)OCCc1ccc(O)c(O)c1 [Decoy367] | Inactive (Decoy)
COC1=C(S[C@@H]2O[C@H](COC(C)=O)[C@@H](OC(C)=O)[C@H](OC(C)=O)[C@H]2OC(C)=O)C(=O)c2c(O)ccc(O)c2C1=O [Decoy719] | Inactive (Decoy)
